Data from patent US11596639B2, “Substituted indole Mcl-1 inhibitors” (Vanderbilt University, priority 2016, dated 2023).
Read-outs that look alike come from different tables or passages of the source.

How the values were obtained:
[1] = system: H929 human cancer cell lines; assay: Cellular viability / proliferation (Cell TiterGlo, 72 h); format: cell-based
Method in brief: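 Plating is at 1,000 cells/well in 10% FBS medium; after 24 h, compound is added as a 2-fold series starting at 50 μM with under 1% DMSO.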

[2] = target: Mcl-1 (Homo sapiens (Human), UniProt Q07820); assay: Fluorescence polarization anisotropy (FPA) competition assay, FITC-Bak or FITC-Bim BH3 peptide; format: binding; conditions: read-out: Ki for Inhibition of Mcl-1 by FPA assay
[3] = Homo sapiens, NCI-H929, 72 h, read-out: GI50 on cellular proliferation of H929 human cancer cell lines, H929 cells, 72 h, Cell TiterGlo, 10% FBS

Mcl-1, sequence (Q07820 172-327): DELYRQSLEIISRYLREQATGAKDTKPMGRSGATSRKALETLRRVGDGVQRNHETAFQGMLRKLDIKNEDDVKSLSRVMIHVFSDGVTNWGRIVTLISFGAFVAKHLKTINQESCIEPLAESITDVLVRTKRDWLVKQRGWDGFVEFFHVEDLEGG

Compound	GI50 [1, 3] [nM]	Ki [2] [nM]	GI50 ([1]; H929 cells, 72 h, Cell TiterGlo, 10% FBS, read-out: GI50 on cellular proliferation of H929 human cancer cell lines) [nM]
Cc1cc(OCCCc2c3n(c4c(-c5c(C)nn(C)c5C)c(Cl)ccc24)[C@H](C)CN(c2c(C)n(C)c4ccc(C(=O)O)cc24)C3=O)cc(C)c1Cl [Example 275, 3-[(4R)-7-chloro-10-[3-(4-chloro-3,5-dimethyl-phenoxy)propyl]-4-methyl-1-oxo-6-(1,3,5-trimethylpyrazol-4-yl)-3,4-dihydropyrazino[1,2-a]indol-2-yl]-1,2-dimethyl-indole-5-carboxylic acid]	370	< 1	–
Cc1cc(N2C[C@@H](C)n3c(c(CCCOc4cc(C)c(Cl)c(C)c4)c4ccc(Cl)c(-c5c(C)nn(C)c5C)c43)C2=O)c2c(c1)c(C(=O)O)cn2C [Example 159, (R)-7-(7-chloro-10-(3-(4-chloro-3,5-dimethylphenoxy)propyl)-4-methyl-1-oxo-6-(1,3,5-trimethyl-1H-pyrazol-4-yl)-3,4-dihydropyrazino[1,2-a]indol-2(1H)-yl)-1,5-dimethyl-1H-indole-3-carboxylic acid]	290	< 1	–
Cc1cc(OCCCc2c3n(c4c(-c5c(C)nn(C)c5C)c(Cl)ccc24)[C@H](C)[C@@H](C)NC3=O)cc(C)c1Cl [Example 140, (3R,4R)-7-chloro-10-(3-(4-chloro-3,5-dimethylphenoxy)propyl)-3,4-dimethyl-6-(1,3,5-trimethyl-1H-pyrazol-4-yl)-3,4-dihydropyrazino[1,2-a]indol-1(2H)-one]	7600	79	–
Cc1cc(OCCCc2c3n(c4c(-c5c(C)nn(C)c5C)c(Cl)ccc24)[C@H](C)CN(c2cc(OCC4CCN(C)C4)cc4c2cc(C(=O)O)n4C)C3=O)cc(C)c1Cl (stereo partly shown) [Example 331, 4-((M, R)-7-Chloro-10-(3-(4-chloro-3,5-dimethylphenoxy)propyl)-4-methyl-1-oxo-6-(1,3,5-trimethyl-1H-pyrazol-4-yl)-3,4-dihydropyrazino[1,2-a]indol-2(1H)-yl)-1-methyl-6-((1-methylpyrrolidin-3-yl)methoxy)-1H-indole-2-carboxylic acid]	–	1.1	2300
Cc1cc(OCCCc2c3n(c4c(-c5c(C)nn(C)c5C)c(Cl)ccc24)[C@H](C)CN(c2nccc4cc(C(N)=O)ccc24)C3=O)cc(C)c1Cl [Example 375, (R)-1-(7-Chloro-10-(3-(4-chloro-3,5-dimethylphenoxy)propyl)-4-methyl-1-oxo-6-(1,3,5-trimethyl-1H-pyrazol-4-yl)-3,4-dihydropyrazino[1,2-a]indol-2(1H)-yl)isoquinoline-6-carboxamide]	2500	10	–
Cc1cc(OCCCc2c3n(c4c(-c5c(C)ncnc5C)c(Cl)ccc24)CCCN(c2cccc4c(C(=O)O)cn(C)c24)C3=O)cc(C)c1Cl [Example 119, 7-[8-chloro-11-[3-(4-chloro-3,5-dimethyl-phenoxy)propyl]-7-(4,6-dimethylpyrimidin-5-yl)-1-oxo-4,5-dihydro-3H-[1,4]diazepino[1,2-a]indol-2-yl]-1-methyl-indole-3-carboxylic acid]	2900	< 1	–
COCCn1cc(C(=O)O)c2c(N3C[C@@H](C)n4c(c(CCCOc5cc(C)c(Cl)c(C)c5)c5ccc(Cl)c(-c6c(C)nn(C)c6C)c54)C3=O)cccc21 [Example 181, 4-[(4R)-7-chloro-10-[3-(4-chloro-3,5-dimethyl-phenoxy)propyl]-4-methyl-1-oxo-6-(1,3,5-trimethylpyrazol-4-yl)-3,4-dihydropyrazino[1,2-a]indol-2-yl]-1-(2-methoxyethyl)indole-3-carboxylic acid]	2000	1.4	–
Cc1cc(OCCCc2c3n(c4c(-c5c(C)nn(C)c5C)c(Cl)ccc24)[C@H](C)CN(c2cccc4nc(C(=O)O)ccc24)C3=O)cc(C)c1Cl [Example 184, (R)-5-(7-chloro-10-(3-(4-chloro-3,5-dimethylphenoxy)propyl)-4-methyl-1-oxo-6-(1,3,5-trimethyl-1H-pyrazol-4-yl)-3,4-dihydropyrazino[1,2-a]indol-2(1H)-yl)quinoline-2-carboxylic acid]	770	< 1	–
Cc1cc(OCCCc2c3n(c4c(-c5c(C)ncnc5C)c(Cl)ccc24)CCCN(c2cn(C)c4ccc(C(=O)O)cc24)C3=O)cc(C)c1Cl [Example 156, 3-[8-Chloro-11-[3-(4-chloro-3,5-dimethyl-phenoxy)propyl]-7-(4,6-dimethylpyrimidin-5-yl)-1-oxo-4,5-dihydro-3H-[1,4]diazepino[1,2-a]indol-2-yl]-1-methyl-indole-5-carboxylic acid]	260	< 1	–
Cc1cc(OCCCc2c3n(c4c(-c5c(C)nn(C)c5C)c(Cl)ccc24)[C@H](C)CN(c2cn(C)c4ccc(C#N)cc24)C3=O)cc(C)c1Cl [Example 208, (R)-3-(7-Chloro-10-(3-(4-chloro-3,5-dimethylphenoxy)propyl)-4-methyl-1-oxo-6-(1,3,5-trimethyl-1H-pyrazol-4-yl)-3,4-dihydropyrazino[1,2-a]indol-2(1H)-yl)-1-methyl-1H-indole-5-carbonitrile]	1600	< 1	–
Cc1cc(OCCCc2c3n(c4c(-c5c(C)nn(CC6CCN(C)CC6)c5C)c(Cl)ccc24)[C@H](C)CN(c2cn(C)c4c(C)cc(C(=O)O)cc24)C3=O)cc(C)c1Cl [Example 161, (R)-3-(7-chloro-10-(3-(4-chloro-3,5-dimethylphenoxy)propyl)-6-(3,5-dimethyl-1-((1-methylpiperidin-4-yl)methyl)-1H-pyrazol-4-yl)-4-methyl-1-oxo-3,4-dihydropyrazino[1,2-a]indol-2(1H)-yl)-1,7-dimethyl-1H-indole-5-carboxylic acid]	480	2.8	–
Cc1cc(OCCCc2c3n(c4c(-c5c(C)nn(C)c5C)c(Cl)ccc24)[C@H](C)CN(c2cn(C)c4ccc(-c5ccccn5)cc24)C3=O)cc(C)c1Cl [Example 389, (R)-7-Chloro-10-(3-(4-chloro-3,5-dimethylphenoxy)propyl)-4-methyl-2-(1-methyl-5-(pyridin-2-yl)-1H-indol-3-yl)-6-(1,3,5-trimethyl-1H-pyrazol-4-yl)-3,4-dihydropyrazino[1,2-a]indol-1(2H)-one]	1500	< 1	–
Cc1cc(OCCCc2c3n(c4c(-c5c(C)nn(C)c5C)c(Cl)ccc24)[C@H](C)CN(c2cn(C)c4ccc(C(=O)NCc5ccncc5)cc24)C3=O)cc(C)c1Cl [Example 284, 3-[(4R)-7-chloro-10-[3-(4-chloro-3,5-dimethyl-phenoxy)propyl]-4-methyl-1-oxo-6-(1,3,5-trimethylpyrazol-4-yl)-3,4-dihydropyrazino[1,2-a]indol-2-yl]-1-methyl-N-(4-pyridylmethyl)indole-5-carboxamide]	1500	3.6	–
Cc1cc(OCCCc2c3n(c4c(-c5c(C)nn(C)c5C)c(Cl)ccc24)[C@H](C)CN(c2coc4ccccc24)C3=O)cc(C)c1Cl (single isomer, unassigned) [Example 237]	7600	14	–
Cc1cc(OCCCc2c3n(c4c(-c5c(C)nn(C)c5C)c(Cl)ccc24)[C@H](C)CN(c2ccc(C(=O)O)c4ccccc24)C3=O)cc(C)c1Cl [Example 189, (R)-4-(7-Chloro-10-(3-(4-chloro-3,5-dimethylphenoxy)propyl)-4-methyl-1-oxo-6-(1,3,5-trimethyl-1H-pyrazol-4-yl)-3,4-dihydropyrazino[1,2-a]indol-2(1H)-yl)-1-naphthoic acid]	920	1.2	–
Cc1cc(OCCCc2c3n(c4c(-c5c(C)nn(C)c5C)c(Cl)ccc24)[C@H](C)CN(c2cc(OC(F)(F)F)cc4cc(C(=O)O)[nH]c24)C3=O)cc(C)c1Cl [Example 469, (R)-7-(7-Chloro-10-(3-(4-chloro-3,5-dimethylphenoxy)propyl)-4-methyl-1-oxo-6-(1,3,5-trimethyl-1H-pyrazol-4-yl)-3,4-dihydropyrazino[1,2-a]indol-2(1H)-yl)-5-(trifluoromethoxy)-1H-indole-2-carboxylic acid]	3300	2.2	–
Cc1cc(OCCCc2c3n(c4c(-c5c(C)nn(C)c5C)c(Cl)ccc24)[C@H](C)CN(c2cn(C)c4ccc(-c5ncn(CC6COC6)n5)cc24)C3=O)cc(C)c1Cl [Example 475, (R)-7-Chloro-10-(3-(4-chloro-3,5-dimethylphenoxy)propyl)-4-methyl-2-(1-methyl-5-(1-(oxetan-3-ylmethyl)-1H-1,2,4-triazol-3-yl)-1H-indol-3-yl)-6-(1,3,5-trimethyl-1H-pyrazol-4-yl)-3,4-dihydropyrazino[1,2-a]indol-1(2H)-one]	250	7	–
Cc1cc(OCCCc2c3n(c4c(-c5c(C)nn(C)c5C)c(Cl)ccc24)[C@H](C)[C@@H](C)N(c2cccc(C(=O)O)c2)C3=O)cc(C)c1Cl [Example 141, 3-((3R,4R)-7-chloro-10-(3-(4-chloro-3,5-dimethylphenoxy)propyl)-3,4-dimethyl-1-oxo-6-(1,3,5-trimethyl-1H-pyrazol-4-yl)-3,4-dihydropyrazino[1,2-a]indol-2(1H)-yl)benzoic acid]	9500	4.5	–
Cc1cc(OCCCc2c3n(c4c(-c5c(C)nn(C)c5C)c(Cl)ccc24)[C@H](C)CN(c2cc(C(=O)O)c4ncccc4c2)C3=O)cc(C)c1Cl [Example 138, (R)-6-(7-chloro-10-(3-(4-chloro-3,5-dimethylphenoxy)propyl)-4-methyl-1-oxo-6-(1,3,5-trimethyl-1H-pyrazol-4-yl)-3,4-dihydropyrazino[1,2-a]indol-2(1H)-yl)quinoline-8-carboxylic acid]	4800	2.2	–
Cc1nn(C)c(C)c1-c1c(Cl)ccc2c(CCCOc3ccc(Cl)cc3)c3n(c12)[C@H](C)CN(c1cn(C)c2ccc(C(=O)O)cc12)C3=O [Example 409, (R)-3-(7-Chloro-10-(3-(4-chlorophenoxy)propyl)-4-methyl-1-oxo-6-(1,3,5-trimethyl-1H-pyrazol-4-yl)-3,4-dihydropyrazino[1,2-a]indol-2(1H)-yl)-1-methyl-1H-indole-5-carboxylic acid]	2800	1.3	–
